Results as given in article PMC12157126, “Saturation kinetics and specificity of transporters for L-arginine and asymmetric dimethylarginine (ADMA) at the blood-brain and blood-CSF barriers” (PLOS One, 2025).
“And” between values parts separate entries of the source, which are not always exact repeats. Equal entries are not always repeated.

Key:
[1] = tested on: blood-brain and blood-CSF barriers; test: In situ brain/choroid plexus perfusion with capillary depletion: CNS uptake of [3H]-arginine in absence and presence of transporter inhibitors; type: in vivo, adult male BALB/c mice; design: Difference (Arginine - Sucrose): unit not given here; conditions: for uptake of [3H]-arginine: [14C]-sucrose corrected; for Arginine, tissue/plasma ratio / Difference (Arginine - Sucrose): 10 mins, 5ml/min, per mouse
Method: (§1) The in situ brain/choroid plexus perfusion method was performed as previously described and will only be briefly detailed here. […] At the end of the perfusion period a CSF sample was taken from the cisterna magna, the animal was decapitated, the brain removed and samples taken under a Leica S4E L2 stereomicroscope (Leica; Buckinghamshire, UK). […] The circumventricular organs (CVOs) including the choroid plexus, pituitary gland and pineal gland were also sampled. Brain samples were also taken for capillary depletion analysis.
(§2) Both the physiological capillary depletion buffer and dextran solution were maintained at 4 °C to halt any cell metabolism and transport processes, and to reduce any cellular or protein damage due to heat generated from the homogenisation process. The whole brain homogenate was then taken for dextran density centrifugation (5,400 x g) and 4 °C to produce an endothelial cell-enriched pellet and supernatant containing brain parenchyma.
(§3) The transporter proteins these inhibitors target are listed in S1 Table in S1 File.
(§4) % change=RTissue−RInhibition /RTissue× 100 (2)

[2] = tested on: blood-brain and blood-CSF barriers; test: In situ brain/choroid plexus perfusion with capillary depletion: CNS uptake of [3H]-ADMA in absence and presence of transporter inhibitors; conditions: for RBrain of [3H]-ADMA in presence of inhibitor: 10 min, sucrose corrected; for RBrain of [3H]-ADMA in presence of inhibitor / % inhibition of [3H]-ADMA uptake: L-homoarginine 20 mM
Method: as §1, §2, §3, §4

[3] = In situ brain/choroid plexus perfusion with capillary depletion: CNS uptake of [3H]-arginine in absence and presence of transporter inhibitors; type: in vivo, adult male BALB/c mice; design: Difference (Arginine - Sucrose): unit not given here; conditions: male, BALB/c, mouse, 10 mins, 5ml/min, per mouse
Method: as §1, §2, §3, §4

[4] = caudate nucleus, BCH 4 mM, α-methyl-D,L-tryptophan 500 μM, L-phenylalanine 200 μM, L-leucine 5 mM, harmaline 2 mM
[5] = frontal cortex, BCH 4 mM, α-methyl-D,L-tryptophan 500 μM, L-phenylalanine 200 μM, L-leucine 5 mM, harmaline 2 mM
[6] = hippocampus, BCH 4 mM, α-methyl-D,L-tryptophan 500 μM, L-phenylalanine 200 μM, L-leucine 5 mM, harmaline 2 mM
[7] = hypothalamus, BCH 4 mM, α-methyl-D,L-tryptophan 500 μM, L-phenylalanine 200 μM, L-leucine 5 mM, harmaline 2 mM
[8] = occipital cortex, BCH 4 mM, α-methyl-D,L-tryptophan 500 μM, L-phenylalanine 200 μM, L-leucine 5 mM, harmaline 2 mM
[9] = pineal gland, BCH 4 mM, α-methyl-D,L-tryptophan 500 μM, L-phenylalanine 200 μM, L-leucine 5 mM, harmaline 2 mM
[10] = thalamus, BCH 4 mM, α-methyl-D,L-tryptophan 500 μM, L-phenylalanine 200 μM, L-leucine 5 mM, harmaline 2 mM

NC(N)=NCCCC[C@H](N)C(=O)O [L-homoarginine, reference compound]
inhibition of [3H]-arginine uptake ([1]; 20 mM L-homoarginine, all brain regions (up to), 10 min): up to 99.7%
inhibition of [3H]-arginine distribution ([1]; 20 mM L-homoarginine, choroid plexus): 99.8%
reduced uptake of [3H]-arginine ([1]; 20 mM L-homoarginine, hypothalamus, did not attain statistical significance): 98.0%
inhibition of [3H]-arginine distribution ([1]; 20 mM L-homoarginine, pituitary gland): 97.6%
decrease in [3H]-arginine distribution ([1]; L-homoarginine, CSF, failed to attain statistical significance (n=3)): 88.4%
inhibition of [3H]-ADMA uptake ([2]; 20 mM L-homoarginine, all brain regions (up to)): up to 99.2%
RBrain of [3H]-ADMA in presence of inhibitor ([2]; CSF, BCH 4 mM, α-methyl-D,L-tryptophan 500 μM, L-phenylalanine 200 μM, L-leucine 5 mM, harmaline 2 mM): 2.45±0.52 ml.100g^-1
RBrain of [3H]-ADMA in presence of inhibitor [2, 4]: 0.18±0.13 ml.100g^-1
% inhibition of [3H]-ADMA uptake [2, 4]: 99.2%
RBrain of [3H]-ADMA in presence of inhibitor ([2]; cerebellum, BCH 4 mM, α-methyl-D,L-tryptophan 500 μM, L-phenylalanine 200 μM, L-leucine 5 mM, harmaline 2 mM): 0.37±0.19 ml.100g^-1
% inhibition of [3H]-ADMA uptake ([2]; cerebellum): 97.9%
RBrain of [3H]-ADMA in presence of inhibitor ([2]; choroid plexus, BCH 4 mM, α-methyl-D,L-tryptophan 500 μM, L-phenylalanine 200 μM, L-leucine 5 mM, harmaline 2 mM): 30.73±22.20 ml.100g^-1
% inhibition of [3H]-ADMA uptake ([2]; choroid plexus, BCH 4 mM, L-phenylalanine 200 μM, L-leucine 5 mM, harmaline 2 mM): 88.2%
RBrain of [3H]-ADMA in presence of inhibitor [2, 5]: 1.06±1.02 ml.100g^-1
% inhibition of [3H]-ADMA uptake [2, 5]: 95.7%
RBrain of [3H]-ADMA in presence of inhibitor [2, 6]: 0.20±0.13 ml.100g^-1
% inhibition of [3H]-ADMA uptake [2, 6]: 99.1%
RBrain of [3H]-ADMA in presence of inhibitor ([2]; homogenate, BCH 4 mM, α-methyl-D,L-tryptophan 500 μM, L-phenylalanine 200 μM, L-leucine 5 mM, harmaline 2 mM): 3.74±3.52 ml.100g^-1
RBrain of [3H]-ADMA in presence of inhibitor [2, 7]: 1.54±1.12 ml.100g^-1
% inhibition of [3H]-ADMA uptake [2, 7]: 94.9%
RBrain of [3H]-ADMA in presence of inhibitor [2, 8]: 0.49±0.40 ml.100g^-1
% inhibition of [3H]-ADMA uptake [2, 8]: 97.8%
RBrain of [3H]-ADMA in presence of inhibitor ([2]; pellet, BCH 4 mM, α-methyl-D,L-tryptophan 500 μM, L-phenylalanine 200 μM, L-leucine 5 mM, harmaline 2 mM): 2.32±1.65 ml.100g^-1
RBrain of [3H]-ADMA in presence of inhibitor [2, 9]: 12.43±6.87 ml.100g^-1
% inhibition of [3H]-ADMA uptake [2, 9]: 93.6%
RBrain of [3H]-ADMA in presence of inhibitor ([2]; pituitary gland, BCH 4 mM, α-methyl-D,L-tryptophan 500 μM, L-phenylalanine 200 μM, L-leucine 5 mM, harmaline 2 mM): 8.57±3.99 ml.100g^-1
% inhibition of [3H]-ADMA uptake ([2]; pituitary gland, BCH 4 mM, L-phenylalanine 200 μM, L-leucine 5 mM, harmaline 2 mM): 95.3%
RBrain of [3H]-ADMA in presence of inhibitor ([2]; pons, BCH 4 mM, α-methyl-D,L-tryptophan 500 μM, L-phenylalanine 200 μM, L-leucine 5 mM, harmaline 2 mM): 2.36±1.06 ml.100g^-1
% inhibition of [3H]-ADMA uptake ([2]; pons): 90.4%
% inhibition of [3H]-ADMA uptake ([2]; supernatant (brain parenchyma)): 65.8%
RBrain of [3H]-ADMA in presence of inhibitor ([2]; supernatant, BCH 4 mM, α-methyl-D,L-tryptophan 500 μM, L-phenylalanine 200 μM, L-leucine 5 mM, harmaline 2 mM): 3.43±1.95 ml.100g^-1
RBrain of [3H]-ADMA in presence of inhibitor [2, 10]: 1.81±0.71 ml.100g^-1
% inhibition of [3H]-ADMA uptake [2, 10]: 91.4%
% inhibition of [3H]-ADMA uptake ([2]; whole brain homogenate, L-phenylalanine 200 μM, L-leucine 5 mM): 78.9%

N=C(N)NCCC[C@H](N)C(=O)O [[^3H]-arginine, L-arginine]
Kp at 10 min ([3]; cerebellum, Arginine, tissue/plasma ratio, cerebellum, + 4mM BCH): 0.607
Kp at 10 min ([3]; cerebellum, Difference (Arginine - Sucrose), cerebellum, + 4mM BCH): 0.575
Kp at 10 min, […] ([3]; cerebellum, with 20 mM L-homoarginine, Arginine, tissue/plasma ratio, cerebellum, + 20mM L-Homoarginine): 0.0312
Kp at 10 min, […] ([3]; choroid plexus, Arginine, tissue/plasma ratio, choroid plexus, + 4mM BCH): 2.01
Kp at 10 min ([3]; choroid plexus, Difference (Arginine - Sucrose), choroid plexus, + 4mM BCH): 1.85
Kp at 10 min ([3]; frontal cortex, Arginine, tissue/plasma ratio, frontal cortex, + 4mM BCH): 0.649
Kp at 10 min ([3]; frontal cortex, Difference (Arginine - Sucrose), frontal cortex, + 4mM BCH): 0.617
Kp at 10 min ([3]; frontal cortex, with L-homoarginine 20 mM in the artificial plasma, Arginine, tissue/plasma ratio, frontal cortex, + 20mM L-Homoarginine): 0.0351
Kp at 10 min ([3]; hippocampus, Arginine, tissue/plasma ratio, hippocampus, + 4mM BCH): 0.477
Kp at 10 min ([3]; hippocampus, Difference (Arginine - Sucrose), hippocampus, + 4mM BCH): 0.457
Kp at 10 min ([3]; occipital cortex, Arginine, tissue/plasma ratio, occipital cortex, + 4mM BCH): 0.631
Kp at 10 min ([3]; occipital cortex, Difference (Arginine - Sucrose), occipital cortex, + 4mM BCH): 0.6
Kp at 10 min, […] ([3]; occipital cortex, with 20 mM L-homoarginine, Arginine, tissue/plasma ratio, occipital cortex, + 20mM L-Homoarginine): 0.0199
Kp at 10 min ([3]; whole brain homogenate, Arginine, tissue/plasma ratio, homogenate, + 4mM BCH): 0.353
Kp at 10 min ([3]; whole brain homogenate, Difference (Arginine - Sucrose), homogenate, + 4mM BCH): 0.332
Kp at 10 min, […] ([3]; with 20 mM L-homoarginine, Arginine, tissue/plasma ratio, supernatant, + 20mM L-Homoarginine): 0.0216
uptake into frontal cortex, times higher than into CSF ([1]; 10 minutes): 5.7 times
uptake into pellet, times lower than into choroid plexus ([1]; 10 minutes): 39.5 times
uptake of [3H]-arginine ([1]; CSF, 10 minutes): 9.53 ± 2.41 ml.100g^-1
uptake of [3H]-arginine ([1]; capillary endothelial cell enriched pellet, 10 minutes): 6.47 ± 1.018 ml.100g^-1
Arginine, tissue/plasma ratio ([1]; caudate nucleus): 0.6618 and 0.8652 and 0.401 and 0.4938 and 0.3347 and 0.5216
Difference (Arginine - Sucrose) ([1]; caudate nucleus): 0.6456 and 0.7471 and 0.378 and 0.4593 and 0.3101 and 0.4829
Arginine, tissue/plasma ratio ([1]; choroid plexus): 3.243 and 3.765 and 2.2598 and 3.422 and 1.518 and 2.959
Difference (Arginine - Sucrose) ([1]; choroid plexus): 3.028 and 3.467 and 2.014 and 2.791 and 1.394 and 2.658
uptake of [3H]-arginine ([1]; choroid plexus, 10 minutes): 255.86 ± 30.41 ml.100g^-1
Arginine, tissue/plasma ratio ([1]; frontal cortex): 0.8204 and 0.8688 and 0.3825 and 0.5285 and 0.3141 and 0.5494
Difference (Arginine - Sucrose) ([1]; frontal cortex): 0.7931 and 0.8428 and 0.3551 and 0.4902 and 0.2926 and 0.505
uptake of [3H]-arginine ([1]; frontal cortex, 10 minutes): 54.65 ± 9.21 ml.100g^-1
Arginine, tissue/plasma ratio ([1]; hippocampus): 0.5129 and 0.6918 and 0.3896 and 0.4547 and 0.2706 and 0.4979
Difference (Arginine - Sucrose) ([1]; hippocampus): 0.4962 and 0.6689 and 0.3625 and 0.4201 and 0.2493 and 0.4621
Arginine, tissue/plasma ratio ([1]; hypothalamus): 0.9811 and 1.538 and 0.3381 and 0.6951 and 0.2905 and 0.3696
Difference (Arginine - Sucrose) ([1]; hypothalamus): 0.9489 and 1.477 and 0.3149 and 0.634 and 0.2579 and 0.3397
Arginine, tissue/plasma ratio ([1]; occipital cortex): 0.6317 and 0.7248 and 0.327 and 0.4186 and 0.2687 and 0.5347
Difference (Arginine - Sucrose) ([1]; occipital cortex): 0.6113 and 0.7014 and 0.3051 and 0.3893 and 0.251 and 0.4973
Difference (Arginine - Sucrose) ([1]; pineal gland): 1.49 and 0.1187 and 0.66 and 1.347 and 0.9026 and 0.5878
Arginine, tissue/plasma ratio ([1]; pituitary gland): 3.254 and 2.641 and 1.189 and 1.192 and 1.144 and 2.275
Difference (Arginine - Sucrose) ([1]; pituitary gland): 3.08 and 2.441 and 0.973 and 1.116 and 1.019 and 2.001
Arginine, tissue/plasma ratio ([1]; thalamus): 0.9502 and 1.029 and 0.4051 and 0.5618 and 0.2525 and 0.5368
Difference (Arginine - Sucrose) ([1]; thalamus): 0.929 and 0.9992 and 0.362 and 0.5168
